This series in a line: Solubility. Format: physicochemical. The conditions noted are these: precipitation at higher concentrations in the assay.

Consider `O=C(Nc1ccc(-c2ccccc2)cc1)Nc1ccc(-c2ccnc3[nH]cnc23)cc1` [Compound 17], for which the solubility result is reported as “poor solubility”.

For the origin of these results see paper PMC4481867 (Bioorganic & medicinal chemistry letters, 2012).
